According to publication PMC7038240 (Antimicrobial Agents and Chemotherapy, 2020):
Where two headings read alike, the source gives them in different places.

How the values were obtained:
Format in all cases: cell-based
[1] = test system: P. aeruginosa; assay: microbe, parasite or virus in culture; settings: Pseudomonas aeruginosa, read-out: MIC
Source text: (§1) The antibacterial activity of cefepime-taniborbactam was compared to that of ceftazidime-avibactam, ceftolozane-tazobactam, and cefepime-tazobactam against a diverse panel of Enterobacterales and P. aeruginosa clinical isolates with defined β-lactamase subtypes (see Table S1 in the supplemental material). IMP-producing strains were excluded, as none of the BLI-protected cephalosporins inhibited IMP sufficiently to provide a clinically relevant rescue of the partner β-lactam, a characteristic also shared by approved BLI-protected carbapenems (meropenem-vaborbactam and imipenem-relebactam). […] The antibacterial activity of the cephalosporins alone was included to ascertain the level of potentiation by the partnered BLI. BLIs were tested at a fixed concentration of 4 μg/ml in all combinations except cefepime-tazobactam, where tazobactam was fixed at a concentration of 8 μg/ml ([38]). The collection comprised 143 clinical isolates collected from 2005 and 2018.
(§2) The in vitro antibacterial activity of the β-lactams alone or in combination with the BLIs was determined in cation-adjusted Mueller-Hinton broth (CAMHB) microdilution assays according to CLSI recommendations ([51]). […]. The inocula for the broth microdilution assays were prepared by the broth culture method ([51]). […]

[2] = test system: E. coli; assay: microbe, parasite or virus in culture; settings: Escherichia coli, read-out: MIC
Source text: as §1, §2

[3] = test system: S. typhi; assay: microbe, parasite or virus in culture; settings: Salmonella enterica, strain 26A, AmpC/TEM-1
Source text: as §1, §2

[4] = test system: M. morgannii; assay: organism not typed; settings: strain 769909; OXA-48
Source text: as §1, §2

How did the MIC ([1]; P. aeruginosa PS-12 (ST-235, VIM-2), BLI fixed at 4 μg/ml) turn out when `CO/N=C(\C(=O)N[C@@H]1C(=O)N2C(C(=O)[O-])=C(C[N+]3(C)CCCC3)CS[C@H]12)c1csc(N)n1` [FEP] was run?
The MIC was 32 µg/mL.

And the MIC ([1]; strain 10.257, PDC-50)?
Its MIC is 32 µg/mL.

What about the MIC ([1]; strain 11.516, PDC-79) of the same compound?
The MIC was 16 µg/mL.

What about the MIC ([1]; strain 11.698, PDC-87) of the same compound?
Its MIC is 128 µg/mL.

And the MIC ([1]; strain 11.813, PDC-91)?
Its MIC is ≥ 256 µg/mL.

What about the MIC ([1]; strain 13.1716, PDC-74) of the same compound?
The MIC was 128 µg/mL.

And the MIC ([1]; strain 13.1717, PDC-74)?
Its MIC is 64 µg/mL.

What about the MIC ([1]; strain 13.1737, PDC-80) of the same compound?
Its MIC is 16 µg/mL.

And the MIC ([1]; strain 13.1755, PDC-86)?
Its MIC is 16 µg/mL.

What about the MIC ([1]; strain 13.1760, PDC-77) of the same compound?
Its MIC is 16 µg/mL.

And the MIC ([1]; strain 13.1775, PDC-87)?
Its MIC is 64 µg/mL.

What about the MIC ([1]; strain 247.3D, VIM-2) of the same compound?
The MIC was 32 µg/mL.

And the MIC ([1]; strain 1129, PDC)?
The MIC was 4 µg/mL.

What about the MIC ([1]; strain 3615, PDC/TEM-1) of the same compound?
Its MIC is 16 µg/mL.

And the MIC ([1]; strain 5671, VIM-1)?
The MIC was 16 µg/mL.

And the MIC ([1]; strain 8273, PDC/TEM-1)?
The MIC was 8 µg/mL.

And the MIC ([1]; strain 164951, W.T.)?
The MIC was 1 µg/mL.

What about the MIC ([1]; strain 377860, W.T.) of the same compound?
The MIC was 4 µg/mL.

What about the MIC ([1]; strain 384743, PDC/TEM-1) of the same compound?
Its MIC is 4 µg/mL.

And the MIC ([1]; strain 1013996, KPC-2)?
The MIC was ≥ 256 µg/mL.

What about the MIC ([1]; strain 1071703, GES-6) of the same compound?
The MIC was 16 µg/mL.

And the MIC ([1]; strain 1113755, GES-5)?
The MIC was 32 µg/mL.

What about the MIC ([1]; strain 1138223, GES-19) of the same compound?
Its MIC is ≥ 256 µg/mL.

And the MIC ([1]; strain 1138337, GES-19)?
Its MIC is ≥ 256 µg/mL.

What about the MIC ([1]; strain 1258509, GES-6) of the same compound?
The MIC was 32 µg/mL.

And the MIC ([1]; strain 1275655, GES-20)?
The MIC was ≥ 256 µg/mL.

What about the MIC ([1]; strain 1300089, GES-19) of the same compound?
The MIC was ≥ 256 µg/mL.

What about the MIC ([1]; strain 1313666, KPC-2) of the same compound?
Its MIC is ≥ 256 µg/mL.

And the MIC ([1]; strain CDC-0090, KPC)?
Its MIC is 128 µg/mL.

And the MIC ([1]; strain PA2, W.T.)?
Its MIC is 8 µg/mL.

And the MIC ([1]; strain PAA1-9G1, GES-5)?
The MIC was ≥ 256 µg/mL.

What about the MIC ([1]; strain PAA1-9G2, GES-5) of the same compound?
The MIC was ≥ 256 µg/mL.

What about the MIC ([1]; strain PS-12, VIM-2) of the same compound?
Its MIC is 32 µg/mL.

And the MIC ([1]; strain PS-32, VIM-2)?
The MIC was 8 µg/mL.

What about the MIC ([1]; strain Paeβ-04, 100-fold ↑ PDC-2/30% OprD/5.6x ↑ABM) of the same compound?
The MIC was 16 µg/mL.

What about the MIC ([1]; strain Paeβ-10, 67-fold ↑ PDC-2/0.1% OprD/5.7x↑ABM) of the same compound?
The MIC was 16 µg/mL.

And the MIC ([1]; strain Paeβ-15, 310-fold ↑ PDC-2/10% OprD/4.4x↑XYM)?
The MIC was 128 µg/mL.

And the MIC ([1]; strain Paeβ-18, 600-fold ↑ PDC-3/<0.01% OprD/3.9x and 5.6x ↑ABM and XYM)?
The MIC was 64 µg/mL.

What about the MIC ([1]; strain Paeβ-21, 200-fold ↑ PDC-4/10% OprD/13.5x ↑XYM) of the same compound?
The MIC was 16 µg/mL.

What about the MIC ([1]; strain Ps296, VIM-2) of the same compound?
The MIC was 4 µg/mL.

What about the MIC ([2]; ATCC25922, E. coli ATCC 25922, enzyme content None) of the same compound?
Its MIC is 0.06 µg/mL.

What about the MIC ([2]; E. coli CDC-0452, NDM) of the same compound?
Its MIC is 64 µg/mL.

And the MIC ([2]; NCTC13353, E. coli NCTC 13353, CTX-M-15)?
The MIC was 64 µg/mL.

What about the MIC ([2]; strain 469, AmpC/SHV-12/TEM-1) of the same compound?
The MIC was 1 µg/mL.

What about the MIC ([2]; strain 1924, TEM-12) of the same compound?
The MIC was 16 µg/mL.

What about the MIC ([2]; strain 664507, OXA-48) of the same compound?
Its MIC is 16 µg/mL.

And the MIC ([2]; strain 664516, OXA-48)?
The MIC was 64 µg/mL.

What about the MIC ([2]; strain 664520, OXA-48) of the same compound?
The MIC was 32 µg/mL.

And the MIC ([2]; strain 664522, OXA-48)?
The MIC was 64 µg/mL.

What about the MIC ([2]; strain 664523, OXA-48) of the same compound?
Its MIC is 128 µg/mL.

What about the MIC ([2]; strain 849121, KPC) of the same compound?
Its MIC is 64 µg/mL.

What about the MIC ([2]; strain 873435, CTX-M-15) of the same compound?
The MIC was 128 µg/mL.

And the MIC ([2]; strain 875627, CTX-M-27)?
The MIC was 8 µg/mL.

And the MIC ([2]; strain 878358, TEM-1/CTX-M)?
Its MIC is ≥ 256 µg/mL.

And the MIC ([2]; strain 890500, TEM-1/CTX-M-14)?
Its MIC is 64 µg/mL.

And the MIC ([2]; strain 1275635, VIM-23)?
The MIC was 64 µg/mL.

And the MIC ([2]; strain 1459453, NDM-7)?
Its MIC is ≥ 256 µg/mL.

And the MIC ([2]; strain CDC-0001, KPC)?
The MIC was 128 µg/mL.

And the MIC ([2]; strain CDC-0069, NDM)?
Its MIC is 32 µg/mL.

And the MIC ([2]; strain CDC-0149, NDM)?
The MIC was ≥ 256 µg/mL.

And the MIC ([2]; strain EC1552 2A, AmpC/CMY-2/TEM-1, CTX-M-15)?
The MIC was 4 µg/mL.

What about the MIC ([2]; strain ESBL 5, CTX-M-15/TEM-1) of the same compound?
The MIC was ≥ 256 µg/mL.

What about the MIC ([2]; strain SI-LP377, CTX-M-2) of the same compound?
Its MIC is 64 µg/mL.

What about the MIC ([2]; strain SI-M004, SHV-2/GES-12) of the same compound?
The MIC was 16 µg/mL.

And the MIC ([2]; strain SI-PO26, AmpC/CMY-2/TEM-1)?
Its MIC is 0.25 µg/mL.

What about the MIC ([2]; strain SI-V502, TEM-29/CTX-M-15) of the same compound?
The MIC was 8 µg/mL.

What about the MIC ([2]; strain VER, OXA-48) of the same compound?
The MIC was 0.5 µg/mL.

And the MIC [3]?
The MIC was 4 µg/mL.

What about the MIC [4] of the same compound?
The MIC was 0.06 µg/mL.
